# In patent US4401660A, “Ester derivatives of 5-O-mycaminosyl tylonolide and method of using same” (Eli Lilly and Company, priority 1981, dated 1983):
# Like-named read-outs stand apart in the source and are kept apart here.
# Assays:
# Streptococcus sp. 80 = experiment: MIC, broth-dilution microtiter test (Table III); assay type: cell-based; design: unit not given here
# Experimental: (§1) The MIC's in Table II were determined by standard agar-dilution assays. The MIC's in Table III were obtained using a conventional broth-dilution microtiter test.
# Mycoplasma gallisepticum = experiment: MIC, broth-dilution microtiter test (Table III); assay type: cell-based; design: unit not given here
# Experimental: as §1
# Mycoplasma synoviae = experiment: MIC, broth-dilution microtiter test (Table III); assay type: cell-based; design: unit not given here
# Experimental: as §1
# [1] = test system: Pasteurella multocida 40G; experiment: MIC, broth-dilution microtiter test (Table III); assay type: cell-based; design: unit not given here
# Experimental: as §1
# Mycoplasma hyorhinis = experiment: MIC, broth-dilution microtiter test (Table III); assay type: cell-based; design: unit not given here
# Experimental: as §1
# [2] = test system: Pasteurella haemolytica 41D; experiment: MIC, broth-dilution microtiter test (Table III); assay type: cell-based; design: unit not given here
# Experimental: as §1
# [3] = test system: Pasteurella multocida 17E; experiment: MIC, broth-dilution microtiter test (Table III); assay type: cell-based; design: unit not given here; details: bovine isolate
# Experimental: as §1
# [4] = test system: Pasteurella multocida 68C; experiment: MIC, broth-dilution microtiter test (Table III); assay type: cell-based; design: unit not given here
# Experimental: as §1
# [5] = test system: Pasteurella haemolytica 22C; experiment: MIC, broth-dilution microtiter test (Table III); assay type: cell-based; design: unit not given here
# Experimental: as §1
# [6] = test system: Pasteurella haemolytica 23C; experiment: MIC, broth-dilution microtiter test (Table III); assay type: cell-based; design: unit not given here
# Experimental: as §1
# [7] = test system: Pasteurella multocida 60A; experiment: MIC, broth-dilution microtiter test (Table III); assay type: cell-based; design: unit not given here; details: avian isolate
# Experimental: as §1
# [8] = test system: Pasteurella multocida 22A; experiment: MIC, broth-dilution microtiter test (Table III); assay type: cell-based; design: unit not given here
# Experimental: as §1
# Staphylococcus aureus = experiment: MIC, broth-dilution microtiter test (Table III); assay type: cell-based; design: unit not given here
# Experimental: as §1
# Pasteurella multocida = experiment: Treatment of Pasteurella infections in chicks (Table V); assay type: in vivo, one-day-old chicks; details: Pasteurella multocida, sc, 4 h; 30 mg/kg by subcutaneous injection one and four hours post challenge; read-out: Deaths in Treated Chicks/Number Treated (converted)
# Method in brief: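 One-day-old chicks challenged subcutaneously with avian P. multocida (0.1 ml of 10^-3 dilution of 20-hour tryptose broth culture). Esters given at 30 mg/kg subcutaneously at 1 and 4 hours post challenge. Untreated infected controls, ten per group.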
# [9] = test system: Streptococcus pyogenes C203; experiment: ED50 in mice with experimental infections (Table IV); assay type: in vivo; details: Streptococcus pyogenes, doses given 1 and 4 hours postinfection
# Method in brief: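 Mice with experimental infections received test compound twice, at 1 and 4 h postinfection. ED50 is the dose in mg/kg (per administration, ×2) protecting 50% of animals.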
# [10] = test system: Streptococcus Group D 9960; experiment: MIC, standard agar-dilution assay (Table II); assay type: cell-based; design: unit not given here
# Experimental: as §1
# [11] = test system: Streptococcus pneumoniae Park I; experiment: MIC, standard agar-dilution assay (Table II); assay type: cell-based; design: unit not given here
# Experimental: as §1
# [12] = test system: Staphylococcus epidermidis EPI1; experiment: MIC, standard agar-dilution assay (Table II); assay type: cell-based; design: unit not given here
# Experimental: as §1
# [13] = test system: Streptococcus Group D X66; experiment: MIC, standard agar-dilution assay (Table II); assay type: cell-based; design: unit not given here
# Experimental: as §1
# [14] = test system: Staphylococcus aureus S13E; experiment: MIC, standard agar-dilution assay (Table II); assay type: cell-based; design: unit not given here
# Experimental: as §1
# [15] = test system: Staphylococcus aureus X400; experiment: MIC, standard agar-dilution assay (Table II); assay type: cell-based; design: unit not given here; details: Staphylococcus aureus X400, methicillin-resistant strain
# Experimental: as §1
# [16] = test system: Staphylococcus epidermidis EPI2; experiment: MIC, standard agar-dilution assay (Table II); assay type: cell-based; design: unit not given here
# Experimental: as §1
# [17] = test system: Haemophilus influenzae Holt; experiment: MIC, standard agar-dilution assay (Table II); assay type: cell-based; design: unit not given here; details: ampicillin-sensitive strain
# Experimental: as §1
# [18] = test system: Staphylococcus aureus X1.1; experiment: MIC, standard agar-dilution assay (Table II); assay type: cell-based; design: unit not given here
# Experimental: as §1
# [19] = test system: Haemophilus influenzae R252; experiment: MIC, standard agar-dilution assay (Table II); assay type: cell-based; design: unit not given here; details: Haemophilus influenzae R252, ampicillin-resistant strain
# Experimental: as §1
# [20] = test system: Streptococcus pyogenes C203; experiment: MIC, standard agar-dilution assay (Table II); assay type: cell-based; design: unit not given here
# Experimental: as §1
# [21] = test system: Staphylococcus aureus V41; experiment: MIC, standard agar-dilution assay (Table II); assay type: cell-based; design: unit not given here; details: Staphylococcus aureus V41, penicillin-resistant strain
# Experimental: as §1
# [22] = C203, oral, read-out: ED50, Oral
# [23] = C203, sc, subcutaneous, read-out: ED50, Subcutaneous
Compound,minimal inhibitory concentration (MIC) (Streptococcus sp. 80),minimal inhibitory concentration (MIC) (Mycoplasma gallisepticum),minimal inhibitory concentration (MIC) (Mycoplasma synoviae),minimal inhibitory concentration (MIC) [1],minimal inhibitory concentration (MIC) (Mycoplasma hyorhinis),minimal inhibitory concentration (MIC) [2],minimal inhibitory concentration (MIC) [3],minimal inhibitory concentration (MIC) [4],minimal inhibitory concentration (MIC) [5],minimal inhibitory concentration (MIC) [6],minimal inhibitory concentration (MIC) [7],minimal inhibitory concentration (MIC) [8],minimal inhibitory concentration (MIC) (Staphylococcus aureus),mortality at 30 mg/kg (Pasteurella multocida) [%],"ED50 [9, 22] [mg/kg]","ED50 [9, 23] [mg/kg]",minimal inhibitory concentration (MIC) [10],minimal inhibitory concentration (MIC) [11],minimal inhibitory concentration (MIC) [12],minimal inhibitory concentration (MIC) [13],further results
"CCC1OC(=O)CC(O)C(C)C(OC2OC(C)C(OC(C)=O)C(N(C)C)C2OC(C)=O)C(CC=O)CC(C)C(=O)C=CC(C)=CC1COC(C)=O (centres unmarked) [Compound 7, 2',4',23-Tri-O-acetyl-OMT]",0.195,0.39,0.39,1.56,3.12,6.25,3.12,1.56,6.25,6.25,3.12,3.12,0.78,50,100,> 15,1,0.125,0.5,1,minimal inhibitory concentration (MIC) [14]: 1; minimal inhibitory concentration (MIC) [15]: 1; minimal inhibitory concentration (MIC) [16]: 0.5; minimal inhibitory concentration (MIC) [17]: 2; minimal inhibitory concentration (MIC) [18]: 0.5; minimal inhibitory concentration (MIC) [19]: 8; minimal inhibitory concentration (MIC) [20]: 0.5; minimal inhibitory concentration (MIC) [21]: 1
"CCC1OC(=O)CC(O)C(C)C(OC2OC(C)C(O)C(N(C)C)C2O)C(CC=O)CC(C)C(=O)C=CC(C)=CC1COC(C)=O (centres unmarked) [Compound 13, 23-O-Acetyl-OMT]",0.195,0.05,0.097,3.12,0.78,6.25,1.56,1.56,3.12,3.12,1.56,1.56,0.39,0,109,3.3,0.5,0.125,0.25,0.25,minimal inhibitory concentration (MIC) [14]: 0.25; minimal inhibitory concentration (MIC) [15]: 0.5; minimal inhibitory concentration (MIC) [16]: 0.25; minimal inhibitory concentration (MIC) [17]: 1; minimal inhibitory concentration (MIC) [18]: 0.25; minimal inhibitory concentration (MIC) [19]: 4; minimal inhibitory concentration (MIC) [20]: 0.125; minimal inhibitory concentration (MIC) [21]: 0.25
"CCC1OC(=O)CC(O)C(C)C(OC2OC(C)C(OC(C)=O)C(N(C)C)C2OC(C)=O)C(CC=O)CC(C)C(=O)C=CC(C)=CC1COC(=O)Cc1ccccc1 (centres unmarked) [Compound 27, 2',4'-Di-O-acetyl-23-O-phenylacetyl-OMT]",0.05,0.05,0.05,3.12,0.097,3.12,1.56,1.56,3.12,3.12,0.78,3.12,0.097,90,159,> 30,0.125,0.03,0.25,0.125,minimal inhibitory concentration (MIC) [14]: 0.25; minimal inhibitory concentration (MIC) [15]: 0.25; minimal inhibitory concentration (MIC) [16]: 0.25; minimal inhibitory concentration (MIC) [17]: 1; minimal inhibitory concentration (MIC) [18]: 0.25; minimal inhibitory concentration (MIC) [19]: 1; minimal inhibitory concentration (MIC) [20]: 0.06; minimal inhibitory concentration (MIC) [21]: 0.25
"CCC1OC(=O)CC(O)C(C)C(OC2OC(C)C(OC(C)=O)C(N(C)C)C2OC(C)=O)C(CC=O)CC(C)C(=O)C=CC(C)=CC1CO (centres unmarked) [Compound 3, 2',4'-Di-O-acetyl-OMT]",< 0.78,0.78,0.195,6.25,3.12,6.25,3.12,1.56,12.5,6.25,3.12,3.12,1.56,0,139,> 15,2,0.25,1,2,minimal inhibitory concentration (MIC) [14]: 2; minimal inhibitory concentration (MIC) [15]: 4; minimal inhibitory concentration (MIC) [16]: 1; minimal inhibitory concentration (MIC) [17]: 2; minimal inhibitory concentration (MIC) [18]: 2; minimal inhibitory concentration (MIC) [19]: 4; minimal inhibitory concentration (MIC) [20]: 0.5; minimal inhibitory concentration (MIC) [21]: 4
CCC1OC(=O)CC(O)C(C)C(OC2OC(C)C(O)C(N(C)C)C2O)C(CC=O)CC(C)C(=O)C=CC(C)=CC1COS(=O)(=O)c1ccc(C)cc1 (centres unmarked) [Compound 46],0.097,0.05,0.097,6.25,0.78,3.12,3.12,3.12,3.12,3.12,1.56,6.25,0.195,80,146,15,0.25,0.03,0.25,0.25,minimal inhibitory concentration (MIC) [14]: 0.25; minimal inhibitory concentration (MIC) [15]: 0.25; minimal inhibitory concentration (MIC) [16]: 0.25; minimal inhibitory concentration (MIC) [17]: 1; minimal inhibitory concentration (MIC) [18]: 0.25; minimal inhibitory concentration (MIC) [19]: 1; minimal inhibitory concentration (MIC) [20]: 0.125; minimal inhibitory concentration (MIC) [21]: 0.25
